# Data: patent US8835392B2, “Mimetic peptides and the use thereof in the form of 20S, 26S and immunoproteasome inhibitors” (Technische Universität, priority 2005, dated 2014)
# Where a SMILES comes first, the peptide text is derived from it. The star is where a group is joined. Cbz = O=C(OCc1ccccc1)*; OtBu = CC(C)(C)O*
# Assays:
# [1] = test system: Human melanoma cells (MeWo); assay: Cell cycle arrest in MeWo cells, propidium iodide FACS; assay type: cell-based; conditions: 24 hours
# Procedure: A, Human melanoma cells (MeWo) were treated with increasing concentrations of the compounds 15 or 3 (MG132) for 72 hours. The viability of the cells after the treatment with compound 15 (-♦-) and with MG132 (-□-) was detected by a crystal-violet-staining. B and C, MeWo cells were co-cultivated with the compounds 15 and 3 (MG132) for 24 hours. The cells were subsequently fixed in 70% ethanol, and treated with RNAse A. The DNA was stained with propidium iodide (5 μg/ml), and analysed by means of FACS (FACS Calibur flow cytometer; Beckton Dickinson). The statistical significance was detected by the chi-square-test. The relative distribution of the cells that were present in the G1-(black), in the S-(white) or in the G2 phase (hatched) of the cellular cycle is shown for both compounds as examined (15 in B and MG132 in C).
# Human melanoma cells (MeWo) were with the compounds 15 and 3 (MG132) for 24 hours co-cultivated. The cells were washed with PBS, in 70% ethanol fixed and subsequently treated with RNAse A. The DNA was stained with propidium iodide (5 μg/ml) and analysed by means of flow-cytometry (FACS Calibur flow cytometer; Beckton Dickinson). The relative dispersion of the cells that were present in different phases of the cell cycle, could thus be detected. […] The statistical significance was detected by the Chi-square test.
# [2] = test system: T1, 20S proteasome of S. cerevisiae; assay: Co-crystallisation with 20S yeast-proteasome
# T1 construct: crystals of the 20S proteasome of S. cerevisiae were generated in hanging drops
# Procedure: For this, crystals of the 20S proteasome of S. cerevisiae were generated in hanging drops at 24° C., as described earlier (6), and incubated for 60 min with compound 15. The protein concentration as used for the crystallization was 40 mg/ml in Tris-HCl (10 mM, pH 7.5), and EDTA (1 mM). The drops contained 3 μl protein and 2 μl reservoir-solution, containing 30 mM magnesium acetate, 100 mM morpholino ethanesulfonic acid (pH 7.2) and 10% MPD.
# The space group belonged to P21 with cellular dimensions of a=135.8 Å, b=300.1 ÅA, c=144.4 Å, and (β=113.1°. Data for 2.8 Å were collected using synchrotron-radiation with λ=1.05 Å on the BW6-beamline of the DESY, Hamburg, Germany. Crystals were soaked in a cryo-protecting buffer (30% MPD, 20 mM magnesium acetate, 100 mM morpholino ethanesulfonic acid pH 6.9), and frozen and in a stream of liquid nitrogen gas at 90K (Oxford Cryo Systems). X-ray-intensities were evaluated using the MOSFILM program-package (Version 6.1), and data reduction was performed with CCP4 (24). The anisotropy of the diffraction was corrected by a general anisotropic temperature factor through comparison of the observed and calculated structure-amplitudes using the program X-PLOR (25). An overall number of 2383416 reflexions that led to 248616 unique reflexions (96.9% completeness), was collected. […]
compound,measurement,setting,value
"CC(C)CC(C=O)NC(=O)C(CC(=O)OC(C)(C)C)NC(=O)C(CC(C)C)NC(=O)OCc1ccccc1 (stereo not drawn) [Compound 15, Z-Leu-Asp(O^tBu)Leu-CHO] (Cbz-Leu-Asp(OtBu)-Leu-aldehyde; configuration not given here)",concentration giving arrest of the cell cycle in the G2 phase,[1],50 nM
same,binding mode to Thr1Oγ in crystal structure,[2]; 2.8 Å,covalent hemiacetal bond
same,specificity for the subunits in crystal structure,[2]; high concentrations of the inhibitors (10 mM),no specificity for the subunits
